Patent US20260285877A1, “Macrocyclic EGFR Inhibitor, and Preparation Method Therefor and Pharmaceutical Use Thereof” (Abbisko Therapeutics Co., Ltd., priority 2022, published 2026)

What was measured:
[1] = Pharmacokinetic experiment in mice; format: in vivo; settings: mouse, plasma; ICR mice, PO 10 mg/kg (IV 2 mg/kg); read-out: Oral F
Excerpt: The purpose of this trial is to study the pharmacokinetic behavior of some compounds of the present invention, and the administration method is: Single oral administration (PO) to ICR mice. The compounds used in this trial are from the compounds in the specific examples of the present invention and the listed positive compounds. ICR mice male N=9 original source: Shanghai Sippr-Bk Lab Animal Co., Ltd. The compounds are weighed and dissolved in the corresponding solution (10% PG+10% Solutol®+80% pH3 citrate buffer). The mixture is then shaken well and sonicated to prepare a 1 mg/mL stock solution. Nine mice are orally administered at a dose of 10 mg/kg (or IV 2 mg/kg) after an overnight fast. About 90 μL of blood is collected via the submandibular vein per time point, heparin sodium anticoagulant is added, the sample is placed on ice after collection, and plasma is centrifuged within 1 hour (centrifugation conditions: 8,000 rpm, 6 minutes, 2-8° C.). The blood collection timepoints are 0, 0.25, 0.5, 1, 2, 4, 6, 8 and 24 h. The samples are stored in a −20° C. refrigerator. The plasma sample is 40 μL, 160 μL of ice-cold acetonitrile containing internal standard is added, vortexed for 3 minutes, and centrifuged at 11,000 rpm for 5 minutes. 100 μL of the supernatant is taken and added to 100 μL of water, 5 μL of the sample is taken and injected into LC/MS/MS for analysis.

A431 WT = experiment: Cell proliferation assay (CellTiter-Glo), A431 WT; format: cell-based; settings: Homo sapiens, A-431; A431 WT cells, 72 hour incubation, CTG
Description: (§1) • (1) Harvest cells in a logarithmic growth phase and count the cells using a platelet counter.
(§2) • (1) Add 10 μL PBS to each well of the TO plate containing cells. • (2) Thaw the CTG reagent and equilibrate the plate to room temperature for 30 minutes. • (3) Add an equal volume of CTG solution to each well. • (4) Lyse cells by shaking on an orbital shaker for 5 minutes. • (5) Leave the plate at room temperature for 20 minutes to stabilize the luminescence signal. • (6) Read the TO fluorescence signal.
(§3) Then add 10 μL of the drug solution concentration to individual wells of the 96-well plate seeded with cells.
(§4) • (1) Thaw the CTG reagent and equilibrate the plate to room temperature for 30 minutes. • (2) Add an equal volume of CTG solution to each well. • (3) Lyse cells by shaking on an orbital shaker for 5 minutes. • (4) Leave the plate at room temperature for 20 minutes to stabilize the fluorescence signal. • (5) Read fluorescence value.
(§5) Analyze the data by using GraphPad Prism 7.0 software, and use Non-linear S-curve regression to fit the dose-response curves, to calculate the IC50 values (in nM).

[2] = test system: Ba/F3 EGFR-L858R-T790M-C797S (LTC); experiment: Cell proliferation assay (CellTiter-Glo), Ba/F3 EGFR-L858R-T790M-C797S; format: cell-based; settings: Mus musculus, BaF3; Ba/F3 EGFR-L858R-T790M-C797S cells, 72 hour incubation, CTG
Description: as §1, §2, §3, §4, §5

[3] = test system: Ba/F3 EGFR-L858R-C797S (LC); experiment: Cell proliferation assay (CellTiter-Glo), Ba/F3 EGFR-L858R-C797S; format: cell-based; settings: Mus musculus, BaF3; Ba/F3 EGFR-L858R-C797S cells, 72 hour incubation, CTG
Description: as §1, §2, §3, §4, §5

[4] = phase III FLAURA, compared with first-generation EGFR TKIs; cited from earlier work

CCS(=O)(=O)C[C@H]1CCN(c2nn3c4cc(ncc24)Nc2ccnc(n2)-c2cnn(C)c2OCC2(CCCC2)C3)C1 [Example 35, (S)-3′-(3-((ethylsulfonyl)meth-yl)pyrrolidin-1-yl)-1′-meth-ylspiro(cyclopentane-1,6′-8-oxa-3-aza-4(6,1)-pyrazolo [4,3-c]pyridina-2(2,4)-pyri-midina-1(4,5)-pyrazolacyclo-octaphane)]
bioavailability [1]: 81.5%

CC(=O)N[C@@H]1CCN(c2nn3c4cc(ncc24)Nc2ccnc(n2)-c2cnn(C)c2OCC2(CCCC2)C3)C1 [Example 49]
IC50 (A431 WT): 0.926 µM | IC50 [2]: 0.0296 µM | IC50 [3]: 0.0599 µM

C=CC(=O)Nc1cc(Nc2nccc(-c3cn(C)c4ccccc34)n2)c(OC)cc1N(C)CCN(C)C [Osimertinib]
overall survival [4]: 38.6 months | progression-free survival [4]: 18.9 months
